Laboratory results published in patent US20230165242A1, “RODENTICIDAL BAIT AND METHOD OF CONTROLLING TARGET HARMFUL RODENTS” (priority 2020, published 2023).

Key:
[1] = system: Female Sprague-Dawley rats that are homozygotic carriers of the Y139F mutation in the Vkorc1 gene; test: Synergy of difethialone and cholecalciferol on warfarin-resistant female Sprague-Dawley Y139F rats; type: in vivo, rat; conditions: gavage once a day for 3 days; difethialone 0.125 mg/kg alone, cholecalciferol 7.5 mg/kg alone, or both combined; 22 days of observation
Source text: Female Sprague-Dawley rats that are homozygotic carriers of the Y139F mutation in the Vkorc1 gene, aged 10 weeks, are acclimatized for 5 days in the presence of a conventional solid feed and water in unlimited amounts. These female Sprague-Dawley Y139F rats are fed by gavage once a day for 3 consecutive days with a gavage solution containing difethialone (LIPHATECH, France) and cholecalciferol (Sigma-Aldrich, France) in a solvent consisting of 95% (v/v) of oil and 5% (v/v) of DMSO. During this period of gavage, the rats are fed with a conventional solid feed and water in unlimited amounts. The amounts of difethialone and cholecalciferol administered are 0.125 mg per kilogram of body weight of the rat fed by gavage and 7.5 mg per kilogram of body weight of the rat fed by gavage, respectively. The rats in two control groups, each consisting of OFA-Sprague-Dawley […] rats, are fed by gavage in the same conditions with gavage solutions containing, respectively, difethialone alone so as to administer an amount of difethialone corresponding to 0.125 mg per kilogram of body weight of the rat fed by gavage and cholecalciferol alone so as to administer an amount of cholecalciferol corresponding to 7.5 mg per kilogram of body weight of the rat fed by gavage. The percentage of rats surviving gavage is noted daily for 21 days counting from the first day of gavage. […]

[2] = system: Warfarin-sensitive Sprague-Dawley rats; test: Relative toxicity of cholecalciferol, single gavage dose, “SD” rats; type: in vivo, rat; conditions: single gavage dose 30 mg/kg; 20 days
Source text: (§1) Warfarin-sensitive Sprague-Dawley rats (20 male rats and 20 female rats), male and female rats that are homozygotic carriers of the L120Q mutation, male and female Sprague-Dawley rats that are homozygotic carriers of the Y139F mutation and male and female brown rats (Rattus norvegicus) that are homozygotic carriers of the Y1 39C mutation are acclimatized for 5 days in the presence of a conventional solid feed and water in unlimited amounts. The rats are fed by gavage with a single dose of a gavage solution containing cholecalciferol (Sigma-Aldrich, France) in a solvent consisting of 95% (v/v) of oil and 5% (v/v) of DMSO. The rats are fed with a conventional solid feed and water in unlimited amounts. The amount of cholecalciferol administered is 30 mg of cholecalciferol per kilogram of body weight of the rat fed by gavage. The percentage of rats surviving gavage for 20 days, counting from the first day of gavage, is noted daily. The results given in Table 4 hereunder describe the mortality observed (“SD”, Sprague-Dawley). The amount of cholecalciferol ingested by the rodents during gavage corresponds to consumption by these rodents of a bait assayed at 300 ppm of cholecalciferol.

[3] = system: warfarin-sensitive male OFA-Sprague-Dawley rats; test: Synergy of bromadiolone and cholecalciferol, gavage, survival; type: in vivo, rat; conditions: gavage 5 consecutive days; bromadiolone 0.1 mg/kg alone, cholecalciferol 7.5 mg/kg alone, or both combined; after 20 days of observation
Source text: A group of 10 warfarin-sensitive male OFA-Sprague-Dawley rats (Charles River, L′Arbresles, France), aged 10 weeks and with a body weight between 160 and 180 g, are fed by gavage for 5 consecutive days with a gavage solution containing bromadiolone (LIPHATECH, France) and cholecalciferol (Sigma-Aldrich, France) in a solvent consisting of 95% (v/v) of oil and 5% (v/v) of DMSO. During this period of gavage, the rats are fed with a conventional solid feed and water in unlimited amounts. The rats are fed by gavage with a volume of this gavage solution so as to administer an amount of bromadiolone corresponding to 0.1 mg of bromadiolone per kilogram of body weight of the rat fed by gavage and an amount of cholecalciferol corresponding to 7.5 mg of cholecalciferol per kilogram of body weight of the rat fed by gavage. The rats in two control groups, each consisting of 10 male OFA-Sprague-Dawley rats, are fed by gavage in the same conditions with gavage solutions containing, respectively, bromadiolone alone so as to administer an amount of bromadiolone corresponding to 0.1 mg of bromadiolone per kilogram of body weight of the rat fed by gavage and cholecalciferol alone so as to administer an amount of cholecalciferol corresponding to 7.5 mg of cholecalciferol per kilogram of body weight of the rat fed by gavage. […]

[4] = system: Sprague-Dawley rats that are homozygotic carriers of the Y139F mutation; test: Relative toxicity of cholecalciferol, single gavage dose, Y139F rats; type: in vivo, rat; conditions: single gavage dose 30 mg/kg; 20 days
Source text: as §1

[5] = system: brown rats (Rattus norvegicus) that are homozygotic carriers of the Y139C mutation; test: Relative toxicity of cholecalciferol, single gavage dose, Y139C rats; type: in vivo; conditions: single gavage dose 30 mg/kg; 20 days
Source text: as §1

[6] = system: rats that are homozygotic carriers of the L120Q mutation; test: Relative toxicity of cholecalciferol, single gavage dose, L120Q rats; type: in vivo, rat; conditions: single gavage dose 30 mg/kg; 20 days
Source text: as §1

[7] = system: warfarin-sensitive male OFA-Sprague-Dawley rats; test: Dose/rodenticidal response effect of cholecalciferol; type: in vivo, rat; conditions: gavage, 21 days
Description: A gavage solution containing cholecalciferol (Sigma-Aldrich, France) in a solvent consisting of 95% (v/v) of oil and 5% (v/v) of DMSO is administered once a day for 3 consecutive days to warfarin-sensitive male OFA-Sprague-Dawley rats (Charles River, L′Arbresles, France), aged 10 weeks and with a body weight between 160 and 180 g. During this period of gavage, the rats are fed with a conventional solid feed and water in unlimited amounts. The doses of cholecalciferol administered to the OFA-Sprague-Dawley rats, given in Table 7 hereunder, are expressed in milligrams of cholecalciferol administered per kilogram of body weight of the gavage-fed rodent.
The percentage of rats surviving gavage is noted daily for 21 days counting from the first day of gavage.

## C=C1CC[C@H](O)C/C1=C/C=C1\CCC[C@]2(C)[C@@H]([C@H](C)CCCC(C)C)CC[C@@H]12 [cholecalciferol]
[1]
  percentage of rats surviving: 90%
[2]
  Female mortality, %: 30%
  Male mortality, %: 10%
[3]
  percentage of rats surviving: 70%
[4]
  Female mortality, %: 0%
  Male mortality, %: 30%
[5]
  Female mortality, %: 0%
  Male mortality, %: 30%
[6]
  Female mortality, %: 5%
  Male mortality, %: 15%
[7]; dose 5 mg/kg once a day for 3 days
  Mortality, %: 20%
[7]; dose 7.5 mg/kg once a day for 3 days
  Mortality, %: 30%
